Reference: ChEMBL document CHEMBL1201862, “PubChem BioAssay data set” (2004)
Active and inactive are the calls of the source.

Key:
BJ [1] = assay: BJ-TERT fibroblast viability loss – cell-based, RAS-independent, luminescence, dose response (AID 1933); type: functional; conditions: Homo sapiens
BJ [2] = assay: cells; type: functional, cell-based; conditions: Homo sapiens
BJ [3] = assay: BJ-TERT-LT-ST fibroblast viability loss – cell-based, RAS-independent, luminescence, dose response (AID 1935); type: functional; conditions: Homo sapiens;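 note: BJ fibroblasts immortalized with TERT plus LT and ST oncogenes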
[4] = DRD fibroblast viability loss – cell-based, non-viral oncogenic, luminescence, dose response (AID 1934); type: functional; conditions: Homo sapiens
BJ [5] = assay: growth inhibition of engineered Ras-driven BJ cells – cell-based, alamar blue fluorescence, cherrypicked samples, dose response (AID 2631); type: functional; conditions: Homo sapiens;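 note: confirmatory dose-response assay in RAS-dependent BJ fibroblasts engineered with TERT, LT and ST, with cytotoxicity read by fluorescence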
Nonstructural protein 1 = Nonstructural protein 1 (Influenza A virus, UniProt Q194T2); type: functional, Influenza A virus (A/California/07/2009(H1N1))
[6] = target: T1, Apoptotic protease-activating factor 1 (Homo sapiens, UniProt O14727); type: functional
T1 sequence (O14727 whole entry): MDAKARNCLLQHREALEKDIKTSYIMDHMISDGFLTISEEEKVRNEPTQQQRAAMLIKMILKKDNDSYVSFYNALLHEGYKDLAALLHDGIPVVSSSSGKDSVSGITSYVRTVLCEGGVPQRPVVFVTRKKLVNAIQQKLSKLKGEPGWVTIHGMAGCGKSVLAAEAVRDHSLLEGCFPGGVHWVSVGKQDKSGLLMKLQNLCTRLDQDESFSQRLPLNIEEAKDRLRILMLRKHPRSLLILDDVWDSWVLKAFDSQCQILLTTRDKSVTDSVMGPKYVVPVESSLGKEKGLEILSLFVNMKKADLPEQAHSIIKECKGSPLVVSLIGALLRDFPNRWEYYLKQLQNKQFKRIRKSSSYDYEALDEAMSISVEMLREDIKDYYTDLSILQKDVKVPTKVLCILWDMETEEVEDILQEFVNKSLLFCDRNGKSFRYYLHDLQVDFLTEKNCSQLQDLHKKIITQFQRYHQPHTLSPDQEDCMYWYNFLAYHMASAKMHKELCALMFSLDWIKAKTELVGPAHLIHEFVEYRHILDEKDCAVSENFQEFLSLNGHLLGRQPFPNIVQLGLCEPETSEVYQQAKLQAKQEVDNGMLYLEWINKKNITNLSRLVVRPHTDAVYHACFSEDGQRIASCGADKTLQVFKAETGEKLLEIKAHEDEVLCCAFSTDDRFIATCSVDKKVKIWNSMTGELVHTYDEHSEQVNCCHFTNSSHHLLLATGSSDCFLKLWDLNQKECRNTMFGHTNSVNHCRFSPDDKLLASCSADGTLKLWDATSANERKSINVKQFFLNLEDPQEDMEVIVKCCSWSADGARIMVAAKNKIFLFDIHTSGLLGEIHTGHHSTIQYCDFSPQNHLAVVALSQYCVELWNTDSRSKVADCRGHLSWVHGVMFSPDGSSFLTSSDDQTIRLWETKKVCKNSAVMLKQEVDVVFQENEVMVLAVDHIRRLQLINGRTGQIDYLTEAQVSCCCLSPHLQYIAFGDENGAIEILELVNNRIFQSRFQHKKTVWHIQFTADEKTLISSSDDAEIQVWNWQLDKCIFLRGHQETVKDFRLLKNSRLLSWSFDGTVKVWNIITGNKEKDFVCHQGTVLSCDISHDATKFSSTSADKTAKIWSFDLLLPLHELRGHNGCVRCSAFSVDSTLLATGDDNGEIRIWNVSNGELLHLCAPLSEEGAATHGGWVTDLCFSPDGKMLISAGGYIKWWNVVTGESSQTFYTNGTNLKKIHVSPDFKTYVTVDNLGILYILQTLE

Caspase-3 = target: T2, Caspase-3 (Homo sapiens, UniProt P42574); type: functional;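 note: Dose-response selectivity test against caspase-3 for candidate inhibitors of sentrin-specific proteases (SENPs)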
T2 sequence (P42574 whole entry): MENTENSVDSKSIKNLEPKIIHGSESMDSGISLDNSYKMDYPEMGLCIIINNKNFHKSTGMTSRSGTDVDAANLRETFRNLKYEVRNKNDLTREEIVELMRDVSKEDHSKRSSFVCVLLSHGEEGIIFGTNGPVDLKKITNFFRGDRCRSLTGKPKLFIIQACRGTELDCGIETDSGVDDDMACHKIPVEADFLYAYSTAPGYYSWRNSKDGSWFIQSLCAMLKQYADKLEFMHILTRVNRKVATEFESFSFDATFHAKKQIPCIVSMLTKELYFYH

[7] = target: T3, Sentrin-specific protease 7 (Homo sapiens, UniProt Q9BQF6); type: functional;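 note: Luminescence-based dose-response confirmation of ultra-high-throughput screening hits, measuring inhibition of SENP7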
T3 sequence (Q9BQF6 whole entry): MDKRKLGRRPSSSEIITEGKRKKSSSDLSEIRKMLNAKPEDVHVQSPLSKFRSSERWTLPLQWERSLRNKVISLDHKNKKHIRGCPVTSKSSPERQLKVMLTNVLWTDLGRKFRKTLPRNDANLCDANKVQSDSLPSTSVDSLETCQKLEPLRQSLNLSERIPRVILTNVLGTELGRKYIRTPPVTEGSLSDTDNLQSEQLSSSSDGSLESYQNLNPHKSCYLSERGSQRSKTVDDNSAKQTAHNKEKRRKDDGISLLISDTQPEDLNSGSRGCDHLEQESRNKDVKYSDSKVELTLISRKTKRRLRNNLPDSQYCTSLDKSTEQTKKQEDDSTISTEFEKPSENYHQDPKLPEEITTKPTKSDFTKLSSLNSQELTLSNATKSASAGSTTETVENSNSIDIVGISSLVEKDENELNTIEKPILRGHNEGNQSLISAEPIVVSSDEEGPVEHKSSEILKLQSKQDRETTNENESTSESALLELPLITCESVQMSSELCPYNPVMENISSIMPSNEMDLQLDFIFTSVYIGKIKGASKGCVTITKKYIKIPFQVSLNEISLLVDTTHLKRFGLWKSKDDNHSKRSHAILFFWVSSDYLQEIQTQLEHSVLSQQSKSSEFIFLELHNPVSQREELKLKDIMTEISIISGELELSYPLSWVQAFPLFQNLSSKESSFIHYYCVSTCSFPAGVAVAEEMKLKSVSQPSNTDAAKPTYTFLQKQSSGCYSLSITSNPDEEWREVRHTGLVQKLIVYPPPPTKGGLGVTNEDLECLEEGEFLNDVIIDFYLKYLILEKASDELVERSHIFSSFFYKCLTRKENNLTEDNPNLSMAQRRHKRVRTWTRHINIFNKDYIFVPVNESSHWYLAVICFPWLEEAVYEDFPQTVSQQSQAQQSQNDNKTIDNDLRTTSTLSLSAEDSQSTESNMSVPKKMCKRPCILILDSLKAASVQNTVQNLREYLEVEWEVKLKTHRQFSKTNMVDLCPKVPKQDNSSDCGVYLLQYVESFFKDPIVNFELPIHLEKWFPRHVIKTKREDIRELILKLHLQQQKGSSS

[8] = target: T4, Sentrin-specific protease 6 (Homo sapiens, UniProt Q9GZR1); type: functional;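 note: Luminescence-based dose-response confirmatory assay of SENP6 inhibition, following up an ultra-high-throughput screen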
T4 sequence (Q9GZR1 whole entry): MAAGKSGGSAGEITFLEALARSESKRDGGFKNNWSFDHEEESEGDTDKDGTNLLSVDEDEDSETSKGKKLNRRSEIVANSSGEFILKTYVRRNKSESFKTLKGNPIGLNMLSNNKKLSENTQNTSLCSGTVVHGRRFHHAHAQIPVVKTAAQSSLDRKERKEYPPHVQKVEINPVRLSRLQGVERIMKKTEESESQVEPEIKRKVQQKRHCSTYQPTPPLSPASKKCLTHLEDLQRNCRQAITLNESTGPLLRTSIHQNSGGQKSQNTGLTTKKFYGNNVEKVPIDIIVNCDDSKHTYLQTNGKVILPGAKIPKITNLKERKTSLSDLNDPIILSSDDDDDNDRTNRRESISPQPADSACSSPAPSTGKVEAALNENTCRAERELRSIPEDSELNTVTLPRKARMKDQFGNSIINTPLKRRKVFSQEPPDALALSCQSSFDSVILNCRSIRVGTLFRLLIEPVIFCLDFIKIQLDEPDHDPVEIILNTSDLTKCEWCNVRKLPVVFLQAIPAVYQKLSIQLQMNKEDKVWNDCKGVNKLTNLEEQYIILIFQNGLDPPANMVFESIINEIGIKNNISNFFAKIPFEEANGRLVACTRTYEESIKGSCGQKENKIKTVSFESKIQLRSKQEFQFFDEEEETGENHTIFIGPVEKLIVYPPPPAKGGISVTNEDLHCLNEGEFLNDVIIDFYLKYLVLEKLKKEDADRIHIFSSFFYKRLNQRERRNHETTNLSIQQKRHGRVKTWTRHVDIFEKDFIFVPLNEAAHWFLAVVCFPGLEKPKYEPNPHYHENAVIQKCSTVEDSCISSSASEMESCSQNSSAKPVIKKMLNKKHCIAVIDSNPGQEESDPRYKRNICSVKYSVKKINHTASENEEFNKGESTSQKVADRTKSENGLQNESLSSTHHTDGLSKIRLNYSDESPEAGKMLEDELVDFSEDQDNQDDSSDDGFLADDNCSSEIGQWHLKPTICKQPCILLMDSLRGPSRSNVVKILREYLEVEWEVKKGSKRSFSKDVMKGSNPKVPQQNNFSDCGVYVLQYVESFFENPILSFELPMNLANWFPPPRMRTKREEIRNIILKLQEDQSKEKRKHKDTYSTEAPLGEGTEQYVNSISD

[9] = target: T5, Sentrin-specific protease 8 (Homo sapiens, UniProt Q96LD8); type: functional;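 note: luminescence read-out of SENP8 inhibition, dose-response confirmation following an ultra-high-throughput screen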
T5 sequence (Q96LD8 whole entry): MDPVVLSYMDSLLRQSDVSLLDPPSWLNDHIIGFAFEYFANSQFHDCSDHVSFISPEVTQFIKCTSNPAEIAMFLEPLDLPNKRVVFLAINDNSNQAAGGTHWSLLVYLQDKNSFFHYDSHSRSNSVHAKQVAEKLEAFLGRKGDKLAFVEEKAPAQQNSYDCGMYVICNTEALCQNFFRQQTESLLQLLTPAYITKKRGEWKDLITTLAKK

[10] = system: Streptococcus sp. 'group A'; assay: Streptococcus pyogenes SK(-)GAS viability under kanamycin – luminescence, BacTiterGlo, confirmation, counter-screen for streptokinase expression inhibitor project, dose response (AID 1900); type: functional, organism-based
Streptokinase A = target: T6, Streptokinase A (Streptococcus pyogenes serotype M1, UniProt P10520); assay: viability-normalized secreted streptokinase activity reduction – plasminogen activation absorbance, OD405, dose response (AID 1914); type: functional, Streptococcus pyogenes M1 GAS;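 note: secreted streptokinase activity via plasminogen activation per viability signal from cell pellet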
T6 sequence (P10520 whole entry): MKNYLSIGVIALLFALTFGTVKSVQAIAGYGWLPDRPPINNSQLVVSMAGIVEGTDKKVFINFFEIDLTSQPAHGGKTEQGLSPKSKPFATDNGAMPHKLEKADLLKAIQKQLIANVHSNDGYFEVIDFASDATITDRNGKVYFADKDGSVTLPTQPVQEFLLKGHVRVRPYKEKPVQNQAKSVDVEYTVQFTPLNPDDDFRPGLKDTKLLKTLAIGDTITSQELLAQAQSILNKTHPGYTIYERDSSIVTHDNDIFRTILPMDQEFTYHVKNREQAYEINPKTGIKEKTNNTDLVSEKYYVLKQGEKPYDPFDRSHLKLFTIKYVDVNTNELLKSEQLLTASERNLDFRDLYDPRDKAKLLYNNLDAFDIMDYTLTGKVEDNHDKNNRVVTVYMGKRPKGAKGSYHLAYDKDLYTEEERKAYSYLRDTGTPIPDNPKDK

Streptococcus = assay: GAS UMAA2166 growth inhibition – luminescence, BacTiterGlo, counter-screen for streptokinase expression inhibitor project, dose response (AID 1915); type: functional, organism-based;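 note: potency for reduction of bacterial viability or growth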
[11] = Luminescence Cell-Based Dose Confirmation HTS to Identify Activators of 5'UTR Stem-Loop Driven Alpha-Synuclein mRNA Translation in H4 Neuroglioblastoma Cells. [Related pubchem assays: 1829 (Project Summary), 1814 (Primary HTS)]; type: functional
[12] = Luminescence Cell-Based Dose Response HTS to Identify Activators of Luciferase Translation or Activity in H4 […] Cells. [Related pubchem assays: 1829 (Project Summary), 1814 (Primary HTS)]; type: functional
H4 = assay: Luminescence Cell-Based Dose Response HTS to Identify Activators of 5'UTR Stem-Loop Driven Prion Protein mRNA Translation in H4 Neuroglioblastoma Cells. [Related pubchem assays: 1829 (Project Summary), 1814 (Primary HTS)]; type: functional; conditions: Homo sapiens
Cytochrome P450 2C9 = Cytochrome P450 2C9 (Homo sapiens, UniProt P11712)
Large T antigen = Large T antigen (Simian virus 40, UniProt P03070); type: functional, Betapolyomavirus macacae;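 note: Confirmatory-stage PubChem screen for compounds that inhibit SV40 T antigen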
Chain of Large T antigen (P03070 whole entry): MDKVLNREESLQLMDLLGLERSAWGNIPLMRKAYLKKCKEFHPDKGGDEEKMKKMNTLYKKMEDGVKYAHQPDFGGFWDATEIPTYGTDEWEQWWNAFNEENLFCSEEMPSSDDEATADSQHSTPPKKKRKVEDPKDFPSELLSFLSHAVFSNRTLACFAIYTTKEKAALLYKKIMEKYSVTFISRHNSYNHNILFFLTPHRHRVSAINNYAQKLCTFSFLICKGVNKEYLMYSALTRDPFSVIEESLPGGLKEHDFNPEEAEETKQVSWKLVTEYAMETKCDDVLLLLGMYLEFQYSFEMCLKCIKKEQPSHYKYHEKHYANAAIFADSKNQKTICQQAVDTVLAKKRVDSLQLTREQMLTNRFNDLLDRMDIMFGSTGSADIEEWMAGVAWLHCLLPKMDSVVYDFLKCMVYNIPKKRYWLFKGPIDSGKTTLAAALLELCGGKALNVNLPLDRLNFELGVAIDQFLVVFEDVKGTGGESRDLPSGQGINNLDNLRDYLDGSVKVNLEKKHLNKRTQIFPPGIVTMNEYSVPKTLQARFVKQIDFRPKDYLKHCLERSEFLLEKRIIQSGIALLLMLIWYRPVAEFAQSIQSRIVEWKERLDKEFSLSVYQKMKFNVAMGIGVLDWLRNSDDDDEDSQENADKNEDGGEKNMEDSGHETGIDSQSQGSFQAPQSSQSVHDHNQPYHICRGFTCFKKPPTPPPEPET

Chain of Nonstructural protein 1 (Q194T2 whole entry): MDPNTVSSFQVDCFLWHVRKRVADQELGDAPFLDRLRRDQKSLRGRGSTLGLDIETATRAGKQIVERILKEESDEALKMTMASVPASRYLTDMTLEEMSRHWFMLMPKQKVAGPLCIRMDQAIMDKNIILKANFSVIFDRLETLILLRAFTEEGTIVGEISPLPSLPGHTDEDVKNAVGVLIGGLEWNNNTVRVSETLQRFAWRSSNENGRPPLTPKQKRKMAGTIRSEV
Chain of Cytochrome P450 2C9 (P11712 whole entry): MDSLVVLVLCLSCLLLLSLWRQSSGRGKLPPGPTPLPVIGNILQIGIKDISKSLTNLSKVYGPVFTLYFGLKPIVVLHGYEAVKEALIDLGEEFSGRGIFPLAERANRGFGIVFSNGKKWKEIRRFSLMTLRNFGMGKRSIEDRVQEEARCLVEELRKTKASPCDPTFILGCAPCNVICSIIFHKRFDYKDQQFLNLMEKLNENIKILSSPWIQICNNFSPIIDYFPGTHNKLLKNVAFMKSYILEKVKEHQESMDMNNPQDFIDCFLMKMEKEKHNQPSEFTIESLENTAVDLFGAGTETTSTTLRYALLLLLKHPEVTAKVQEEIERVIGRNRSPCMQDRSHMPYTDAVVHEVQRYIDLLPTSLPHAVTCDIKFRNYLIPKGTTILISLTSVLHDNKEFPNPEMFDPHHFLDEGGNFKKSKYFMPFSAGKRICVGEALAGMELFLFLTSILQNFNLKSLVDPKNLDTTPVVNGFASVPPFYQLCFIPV

COCCCNC(=O)Cc1c(C)c2c(cc(C)c3c(C(C)(C)C)coc32)oc1=O
inconclusive: EC50 (BJ [1]) 8.02 µM | EC50 (BJ [2]) 19.3 µM | EC50 [4] 10.6 µM
active: EC50 (BJ [3]) 4.18 µM | EC50 (BJ [5]) 0.473 µM

CCOC(=O)C1CCCN(C2=C(NS(=O)(=O)c3ccc(Br)cc3)C(=O)c3ccccc3C2=O)C1 (configuration not stated)
active: IC50 (Nonstructural protein 1) 15.9 µM | IC50 [6] 19.5 µM

Cc1cc(-n2c(C)cc(C(=O)COc3ccc(F)c(F)c3)c2C)no1
active: IC50 (Caspase-3) 21 µM | IC50 [7] 8.26 µM | IC50 [8] 22.7 µM | IC50 [9] 20.4 µM

Fc1ccc(NC(=S)N2N=CCC2c2ccccc2)cc1 (configuration not stated)
active: IC50 (Caspase-3) 15.9 µM | IC50 [7] 11.8 µM | IC50 [8] 39.3 µM | IC50 [9] 38.3 µM

C/C(=N/OC(=O)c1ccccc1Br)c1ccc(C)cc1
active: IC50 (Caspase-3) 31.3 µM | IC50 [7] 7.72 µM | IC50 [8] 28.1 µM | IC50 [9] 46.9 µM

C[C@@]12CCC=C[C@H]1[C@H](c1ccc3ccccc3c1Br)N(Cc1ccccc1)C2=O
active: EC50 [10] 4.22 µM | EC50 (Streptokinase A) 5.76 µM | EC50 (Streptococcus) 5.78 µM | IC50 [6] 59.3 µM

Clc1ccc(-c2cc3ccccc3[nH]2)cc1
active: EC50 [11] 3.77 µM | EC50 [12] 106 µM | EC50 (H4) 9.01 µM | IC50 (Caspase-3) 16 µM | IC50 [7] 8.48 µM | IC50 [8] 18 µM | IC50 [9] 19.9 µM
inconclusive: AC50 (Cytochrome P450 2C9) 11.2 µM

Cc1cc(C)c2c(CCl)cc(=O)oc2c1
inconclusive: EC50 (BJ [3]) 0.584 µM
active: EC50 (BJ [1]) 0.784 µM | EC50 (BJ [2]) 0.676 µM | IC50 (Large T antigen) 9.73 µM | EC50 [4] 0.762 µM | EC50 (BJ [5]) 0.296 µM
